Measurements as given in ChEMBL document CHEMBL1201862, “PubChem BioAssay data set” (2004).
Several values for one entry are separate records, joined by “and”; a condition that tells them apart may be missing. Equal values may be shown once. Activity calls are given as the source filed them.

Legend:
[1] = A549 cell cytotoxicity, dose response, cytotoxicity control, cherry-picks, 26 µM top dose (AID 1053119); type: functional, cell-based
[2] = HEK293 cell cytotoxicity, dose response, cytotoxicity control, cherry-picks, set 5 (AID 1053117); type: functional, cell-based
[3] = HepG2 cell cytotoxicity, dose response, cytotoxicity control, cherry-picks, set 5 (AID 1053118); type: functional, cell-based
[4] = biological target: T1, CAAX prenyl protease 2 (Saccharomyces cerevisiae S288c, UniProt Q03530); type: biochemical
T1 sequence (Q03530 whole entry): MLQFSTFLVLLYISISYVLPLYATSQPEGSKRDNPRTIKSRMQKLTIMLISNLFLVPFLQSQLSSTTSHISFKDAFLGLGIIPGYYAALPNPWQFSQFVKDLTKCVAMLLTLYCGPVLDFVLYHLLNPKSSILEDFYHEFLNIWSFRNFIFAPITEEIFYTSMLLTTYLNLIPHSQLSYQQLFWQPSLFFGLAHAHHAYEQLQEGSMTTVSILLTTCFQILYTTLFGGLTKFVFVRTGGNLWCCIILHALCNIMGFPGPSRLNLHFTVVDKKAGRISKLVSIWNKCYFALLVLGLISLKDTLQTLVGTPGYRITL

[5] = biological target: Endoplasmic reticulum aminopeptidase 1 (Homo sapiens, UniProt Q9NZ08); experiment: ERAP1 aminopeptidase inhibitors, dose response, biochemical, cherry-pick, set 2, plate reader (AID 743314)
Chain of Endoplasmic reticulum aminopeptidase 1 (Q9NZ08 whole entry): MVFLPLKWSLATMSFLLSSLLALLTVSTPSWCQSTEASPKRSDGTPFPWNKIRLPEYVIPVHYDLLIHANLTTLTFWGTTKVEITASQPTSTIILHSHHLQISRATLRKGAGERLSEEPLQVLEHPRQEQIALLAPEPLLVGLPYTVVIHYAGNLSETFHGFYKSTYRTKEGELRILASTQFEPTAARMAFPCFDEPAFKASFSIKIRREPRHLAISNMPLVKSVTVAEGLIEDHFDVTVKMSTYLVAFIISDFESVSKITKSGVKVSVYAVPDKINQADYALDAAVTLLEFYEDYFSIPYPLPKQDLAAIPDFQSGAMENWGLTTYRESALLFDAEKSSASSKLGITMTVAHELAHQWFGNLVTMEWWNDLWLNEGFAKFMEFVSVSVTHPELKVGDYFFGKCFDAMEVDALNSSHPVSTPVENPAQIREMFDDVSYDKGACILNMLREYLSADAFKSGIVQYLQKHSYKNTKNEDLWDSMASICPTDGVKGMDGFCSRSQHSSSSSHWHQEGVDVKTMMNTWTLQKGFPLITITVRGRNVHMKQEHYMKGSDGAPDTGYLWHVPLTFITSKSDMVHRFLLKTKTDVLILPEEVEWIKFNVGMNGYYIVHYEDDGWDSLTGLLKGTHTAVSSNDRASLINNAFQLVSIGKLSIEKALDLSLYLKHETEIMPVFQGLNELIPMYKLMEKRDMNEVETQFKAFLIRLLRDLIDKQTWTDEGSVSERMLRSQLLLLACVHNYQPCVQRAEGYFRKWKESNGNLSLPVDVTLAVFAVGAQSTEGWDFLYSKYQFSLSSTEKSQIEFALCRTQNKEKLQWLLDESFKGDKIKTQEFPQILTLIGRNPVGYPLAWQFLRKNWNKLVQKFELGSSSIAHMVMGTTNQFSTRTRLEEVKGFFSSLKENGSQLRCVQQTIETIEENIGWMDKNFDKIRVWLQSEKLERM

[6] = cells
[7] = biological target: T2, Acyl-homoserine lactone acylase PvdQ (Pseudomonas aeruginosa (strain LESB58), UniProt Q9I194); experiment: P. aeruginosa PvdQ acylase inhibitors, dose response, biochemical, fluorescence, plate reader and imaging, cherry-picks (AID 493231)
T2 sequence (Q9I194 whole entry): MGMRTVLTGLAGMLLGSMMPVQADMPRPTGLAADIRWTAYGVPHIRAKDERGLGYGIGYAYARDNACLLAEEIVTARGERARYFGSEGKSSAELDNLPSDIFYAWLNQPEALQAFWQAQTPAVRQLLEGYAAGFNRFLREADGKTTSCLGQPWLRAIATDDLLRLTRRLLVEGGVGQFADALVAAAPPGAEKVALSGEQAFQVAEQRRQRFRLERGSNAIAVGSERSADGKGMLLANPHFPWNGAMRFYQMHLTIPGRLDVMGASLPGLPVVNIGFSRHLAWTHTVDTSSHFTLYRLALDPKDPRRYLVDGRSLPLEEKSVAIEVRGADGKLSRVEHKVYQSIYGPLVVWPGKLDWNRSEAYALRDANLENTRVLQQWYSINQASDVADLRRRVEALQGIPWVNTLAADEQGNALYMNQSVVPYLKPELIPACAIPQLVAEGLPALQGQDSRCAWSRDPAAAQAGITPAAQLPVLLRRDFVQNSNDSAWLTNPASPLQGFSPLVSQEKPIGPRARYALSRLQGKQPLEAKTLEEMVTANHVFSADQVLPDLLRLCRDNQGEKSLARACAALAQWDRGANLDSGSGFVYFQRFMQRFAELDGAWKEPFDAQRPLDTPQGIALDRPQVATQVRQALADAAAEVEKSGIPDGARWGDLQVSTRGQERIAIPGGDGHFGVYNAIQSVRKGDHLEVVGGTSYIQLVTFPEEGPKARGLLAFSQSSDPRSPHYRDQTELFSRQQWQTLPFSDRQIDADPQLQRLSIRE

[8] = biological target: T3, Oxysterols receptor LXR-beta (Homo sapiens, UniProt P55055); type: functional, cell-based;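 further: Cell-based luminescence dose-response assay of agonist activity at LXR, run as a confirmatory counterscreen to a daf-12 agonist screen; HEK293 cells with Gal4-LXR fusion and GAL4-driven luciferase reporter; agonist potency from rising luciferase signal of a Gal4-LXR reporter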
T3 sequence (P55055 whole entry): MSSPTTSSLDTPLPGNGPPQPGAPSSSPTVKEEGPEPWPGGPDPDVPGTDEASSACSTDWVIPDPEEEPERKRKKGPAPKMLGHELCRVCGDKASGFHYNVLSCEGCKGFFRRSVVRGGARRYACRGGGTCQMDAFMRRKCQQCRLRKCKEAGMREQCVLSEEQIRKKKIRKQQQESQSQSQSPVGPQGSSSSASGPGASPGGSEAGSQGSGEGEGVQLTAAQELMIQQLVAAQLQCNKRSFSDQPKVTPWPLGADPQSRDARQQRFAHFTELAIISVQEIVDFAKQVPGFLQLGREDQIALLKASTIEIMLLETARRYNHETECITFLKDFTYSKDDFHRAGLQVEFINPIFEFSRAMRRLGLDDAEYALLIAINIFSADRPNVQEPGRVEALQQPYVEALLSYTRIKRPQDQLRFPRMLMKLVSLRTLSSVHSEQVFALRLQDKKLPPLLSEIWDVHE

[9] = Vero E6 cell cytotoxicity, dose response, cytotoxicity control for non-replicating M. tuberculosis project, secondary assay (AID 492998); type: functional, VeroE6; conditions: Vero C1008
[10] = biological target: 1-phosphatidylinositol 4,5-bisphosphate phosphodiesterase gamma-1 (Homo sapiens, UniProt P19174); experiment: Counterscreen for inhibitors of phospholipase C isozymes (PLC-B3): Fluorescence-based biochemical high throughput dose response assay to identify inhibitors of phospholipase C isozymes (PLC-gamma1).
Chain of 1-phosphatidylinositol 4,5-bisphosphate phosphodiesterase gamma-1 (P19174 whole entry): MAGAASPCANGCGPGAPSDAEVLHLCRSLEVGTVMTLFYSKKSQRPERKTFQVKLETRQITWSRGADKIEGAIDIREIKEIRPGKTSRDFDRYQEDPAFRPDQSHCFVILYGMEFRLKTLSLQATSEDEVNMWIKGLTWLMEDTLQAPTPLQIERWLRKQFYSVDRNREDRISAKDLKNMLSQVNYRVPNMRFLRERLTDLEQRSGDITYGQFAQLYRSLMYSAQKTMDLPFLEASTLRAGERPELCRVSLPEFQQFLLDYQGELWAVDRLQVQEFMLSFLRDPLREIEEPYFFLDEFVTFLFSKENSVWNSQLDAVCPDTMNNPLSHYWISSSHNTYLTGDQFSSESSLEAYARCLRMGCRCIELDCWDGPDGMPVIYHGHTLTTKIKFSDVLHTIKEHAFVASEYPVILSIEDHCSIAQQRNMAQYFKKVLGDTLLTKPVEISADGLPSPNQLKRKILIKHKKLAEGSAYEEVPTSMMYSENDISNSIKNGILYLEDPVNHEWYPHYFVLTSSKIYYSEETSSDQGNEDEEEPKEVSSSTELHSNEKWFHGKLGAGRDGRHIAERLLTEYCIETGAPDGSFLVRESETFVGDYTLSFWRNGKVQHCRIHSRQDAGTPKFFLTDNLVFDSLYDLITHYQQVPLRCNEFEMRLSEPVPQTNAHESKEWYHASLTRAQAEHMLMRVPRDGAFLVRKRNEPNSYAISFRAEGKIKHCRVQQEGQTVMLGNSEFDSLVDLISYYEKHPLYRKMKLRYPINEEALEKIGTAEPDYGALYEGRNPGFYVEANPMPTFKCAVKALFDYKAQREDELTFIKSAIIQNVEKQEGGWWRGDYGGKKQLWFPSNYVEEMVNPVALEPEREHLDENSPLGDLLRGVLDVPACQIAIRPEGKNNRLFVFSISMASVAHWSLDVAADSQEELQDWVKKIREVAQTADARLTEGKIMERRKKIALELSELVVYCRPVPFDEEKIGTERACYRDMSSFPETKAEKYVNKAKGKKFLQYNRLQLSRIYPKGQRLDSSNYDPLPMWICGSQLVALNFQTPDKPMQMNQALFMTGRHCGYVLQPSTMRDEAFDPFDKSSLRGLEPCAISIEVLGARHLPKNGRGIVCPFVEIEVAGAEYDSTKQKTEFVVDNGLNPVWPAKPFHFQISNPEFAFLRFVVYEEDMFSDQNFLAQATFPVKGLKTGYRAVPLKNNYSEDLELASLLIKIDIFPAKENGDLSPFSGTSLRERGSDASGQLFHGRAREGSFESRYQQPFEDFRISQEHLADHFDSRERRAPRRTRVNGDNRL

[11] = biological target: 1-phosphatidylinositol 4,5-bisphosphate phosphodiesterase beta-3 (Homo sapiens, UniProt Q01970); experiment: Fluorescence-based biochemical high throughput dose response assay to identify inhibitors of phospholipase C isozymes (PLC-B3).
Chain of 1-phosphatidylinositol 4,5-bisphosphate phosphodiesterase beta-3 (Q01970 whole entry): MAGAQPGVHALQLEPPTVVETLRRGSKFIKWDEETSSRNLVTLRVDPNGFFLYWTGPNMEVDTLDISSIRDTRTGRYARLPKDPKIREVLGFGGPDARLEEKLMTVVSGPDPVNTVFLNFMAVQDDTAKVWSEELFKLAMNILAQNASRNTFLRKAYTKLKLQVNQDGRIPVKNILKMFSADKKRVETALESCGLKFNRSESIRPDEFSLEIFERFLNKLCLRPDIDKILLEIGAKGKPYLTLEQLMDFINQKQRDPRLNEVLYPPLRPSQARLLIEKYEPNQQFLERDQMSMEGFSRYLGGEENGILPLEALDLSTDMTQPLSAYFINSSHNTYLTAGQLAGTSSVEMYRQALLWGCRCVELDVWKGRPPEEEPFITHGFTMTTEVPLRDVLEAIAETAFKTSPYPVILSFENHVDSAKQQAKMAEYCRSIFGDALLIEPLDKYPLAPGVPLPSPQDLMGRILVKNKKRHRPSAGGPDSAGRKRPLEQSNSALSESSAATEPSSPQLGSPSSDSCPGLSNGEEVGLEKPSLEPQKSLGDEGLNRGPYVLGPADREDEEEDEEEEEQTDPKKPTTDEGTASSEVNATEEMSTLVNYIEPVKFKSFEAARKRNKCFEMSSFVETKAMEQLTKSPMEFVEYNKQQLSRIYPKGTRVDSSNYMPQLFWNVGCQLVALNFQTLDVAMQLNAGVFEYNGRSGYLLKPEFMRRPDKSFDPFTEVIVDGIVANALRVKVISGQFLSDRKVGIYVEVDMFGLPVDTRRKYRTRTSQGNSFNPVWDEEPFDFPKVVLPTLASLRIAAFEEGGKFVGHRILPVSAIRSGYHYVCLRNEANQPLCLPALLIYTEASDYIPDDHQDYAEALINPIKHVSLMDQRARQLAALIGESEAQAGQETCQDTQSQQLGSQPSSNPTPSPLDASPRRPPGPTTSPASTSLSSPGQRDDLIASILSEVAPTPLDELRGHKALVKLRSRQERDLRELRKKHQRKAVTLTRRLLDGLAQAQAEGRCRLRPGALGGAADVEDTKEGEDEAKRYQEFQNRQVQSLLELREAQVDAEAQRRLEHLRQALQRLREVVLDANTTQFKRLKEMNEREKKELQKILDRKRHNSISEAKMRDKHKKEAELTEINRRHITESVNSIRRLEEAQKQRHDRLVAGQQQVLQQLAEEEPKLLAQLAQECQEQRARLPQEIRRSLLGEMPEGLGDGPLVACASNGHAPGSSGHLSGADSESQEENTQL

[12] = C. albicans growth with fluconazole, confirmation, fluorescence, retest (AID 2467); type: functional, cell-based
[13] = THP-1 cell cytotoxicity, dose response, cytotoxicity control for non-replicating M. tuberculosis project (AID 489025); type: functional
[14] = NIH-3T3 fibroblast cytotoxicity, dose response, cytotoxicity control, cell-based, fluorescence, Alamar Blue, secondary assay (AID 2327); type: functional;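 further: NIH-3T3 mouse fibroblasts cultured with fluconazole at 8 µg/mL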
[15] = SK-MEL-5 parental cell viability reduction, dose response, orthogonal assay for MITF inhibitor project, CellTiter-Glo luminescence, dry powder, set 8 (AID 651586); type: functional, cell-based
[16] = TRPM1 promoter luciferase reporter signal decrease, dose response, MITF inhibitor project, cell-based, SK-MEL-5, dry powder, set 9 (AID 651588); type: functional
[17] = cytotoxicity in primary human melanocytes, dose response, cytotoxicity control, cell-based, plate reader, dry powder (AID 651920); type: functional
[18] = MITF: Counter assay: A375 proliferation Measured in Cell-Based System Using Plate Reader - 2084-03_Inhibitor_Dose_DryPowder_Activity_Set8.; type: functional; conditions: A-375
[19] = MALME3 melanoma cell viability reduction, dose response, orthogonal assay for MITF inhibitor project, CellTiter-Glo luminescence, dry powder, set 5 (AID 651584); type: functional, cell-based; conditions: MALME-3
[20] = MITF Orthogonal Assay: MALME3 CTG Assay Measured in Cell-Based System Using Plate Reader - 2084-04_Inhibitor_Dose_DryPowder_Activity_Set6.; type: functional; conditions: MALME-3
[21] = MITF Orthogonal Assay: SK-MEL-5 CTG Assay Measured in Cell-Based System Using Plate Reader - 2084-02_Inhibitor_Dose_DryPowder_Activity_Set7.; type: functional
[22] = TRPM1 promoter luciferase reporter signal decrease, dose response, MITF inhibitor project, cell-based, SK-MEL-5, dry powder, set 8 (AID 624430); type: functional
[23] = A375 melanoma cell viability loss, dose response, counter-screen for MITF modulator project, CellTiter-Glo luminescence, dry powder, set 9 (AID 651591); type: functional, cell-based; conditions: A-375
[24] = cells; conditions: A549
[25] = cytotoxicity toward NIH3T3 fibroblasts, dose response, counter-screen, cell-based, ATP luminescence, mouse fibroblasts (AID 2010); type: functional;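 further: cells exposed to compound for about 90 hours before reading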
[26] = inhibitors of fibronectin matrix deposition, dose response, AH1F cells, Alexa488-FN fluorescence, cherry-picks (AID 1035475); type: functional, cell-based
[27] = inhibitors of intracellular T. cruzi replication, confirmation, NIH3T3 host cells, beta-gal luminescence (AID 2044); type: functional, cell-based;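 further: intracellular parasites grown in NIH/3T3 mouse fibroblasts as host cells; luminescent beta-galactosidase reporter signal from transgenic T. cruzi replicating inside host cells; inhibitors lower the luminescence signal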

In the case of CO[C@H]1CN(C)C(=O)c2ccc(NC(=O)c3ccc(-c4ccccc4)cc3)cc2OC[C@H](C)NC[C@H]1C, the AC50 [1] is reported as 33.9 µM (active), the AC50 [2] is reported as > 52 µM (inactive) and the AC50 [3] is reported as 32.2 µM (active).
In the case of CCOC(=O)C[n+]1ccc2c([nH]c3ccccc32)c1C, the AC50 [4] is reported as > 100 µM (inactive) and the AC50 [5] is reported as 11.4 µM (active).
With COc1ccc(-c2cc(=O)c3ccccc3s2)cc1 the EC50 [6] was > 67.5 µM (inactive), the AC50 [7] was > 100 µM (inactive) and the EC50 [8] was > 67.5 µM (inactive).
For Cc1ccc(S(=O)(=O)CCC(=O)Nc2nc(-c3ccncc3)cs2)cc1, the CC50 [9] was > 20 µM (active), the IC50 [10] was > 122 µM (inactive) and the IC50 [11] was > 122 µM (inactive). For the same molecule, the EC50 [12] was 6.58 µM (active), the CC50 [13] was > 40 µM (active) and the EC50 [14] was 17.1 µM (inconclusive).
With NS(=O)(=O)c1ccc(NC2=CC(=O)c3ccccc3C2=O)cc1 the AC50 [15] was 751 nM (active), the AC50 [16] was 1.23 µM (active) and the AC50 [17] was 7.15 µM (active) and 7.63 µM (active). The AC50 [18] was > 70 µM (inactive), the AC50 [19] was 703 nM (active) and the AC50 [20] was 703 nM (active). For the same molecule, the AC50 [21] was 77.1 nM (active), the AC50 [22] was 1.16 µM (active) and the AC50 [23] was > 70 µM (inactive).
For Cc1ccc2c(c1)N(C(=O)CCC(=O)NCCCN1CCOCC1)CC(C)O2 (configuration not stated), the AC50 [24] was > 52 µM (inactive).
With O=C(Nc1cc(Sc2nc3ccccc3s2)cc([N+](=O)[O-])c1)c1ccccc1F the EC50 [25] was > 60 µM (not active), the AC50 [26] was 24.3 µM (active) and the EC50 [27] was 1.92 µM (active).
